Measurements published in patent publication US20130023491A1, “BETA-CELL REPLICATION PROMOTING COMPOUNDS AND METHODS OF THEIR USE” (President and Fellows of Harvard College, priority 2009, published 2013).
pEC50: −log10 of the molar value. Read-outs that look alike come from different tables or passages of the source.

Assays:
[1] = test system: β-cells (dispersed rat islet cells); experiment: primary islet β-cell replication assay (PDX-1/ki-67 co-staining, automated imaging); type: cell-based
Description: Rat islets were isolated as previously described in Gotoh M, Maki T, Kiyoizumi T, Satomi S, Monaco A P: An improved method for isolation of mouse pancreatic islets. Transplantation 40:437-438, 1985, contents of which are herein incorporated by reference in their entirety. Isolated islets were cultured overnight in a tissue culture incubator. The following morning, islets were trypsinized into cellular clusters of 1-3 cells, re-suspended in islet media (Mediatech 99-786-CV; 10% FBS serum (Valley Biomedial BS3033); 8.3 mM Glucose (Sigma G7528); 1× Penicillin/Streptomycin (Invitrogen 15070-063); 1× Glutamax (Invitrogen 35050-079)) and plated into the wells of a 96-well plate (Sigma CLS3904) that had been coated with 804G (a rat bladder carcinoma cell line) conditioned media. The cellular plating density was 60 k cells/well and greater than 95% viability was confirmed at the time of plating. […] For screening, compounds were tested at 1 uM concentration in duplicate. After 24-hours of compound treatment, cells were fixed with fresh 4% PFA (Electron Microscopy Services 15710) for 20 minutes and washed with PBS (VWR 45000-446). Antigen retrieval was performed by heating the cells to 90 degrees Celsius in 0.1 mM EDTA (Ambion AM9260G) in PBS. Cells were then washed and permeabalized with PBS/0.3% Triton X-100 (J.T.Baker X198-07) for 15 minutes. Immunocytochemical staining was then performed as follows. Antigen blocking was performed with 5% normal donkey serum (Jackson ImmunoResearch 017-000-121) in PBS for an hour. Staining was performed by overnight incubation with primary antibody at 4 degrees Celsius. For the primary screen, PDX-1 antibody (R&D AF2419) was used to reveal beta-cells and ki-67 antibody (BD Bioscience 556003) to visualize proliferating cells. Without wishing to be bound by theory, the failure of prior beta-cell replication screens is primarily a consequence of using a cytoplasmic marker (Insulin) as the β-cell identifier. The use of a cytoplasmic marker prevents accurate attribution of nuclear replication to a specific cell identity i.e., in dense culture it is impossible to attribute a cytoplasm to a specific nucleus given the proximity to multiple nuclei. Additional Immunohistochemistry antibodies included Phosphohistone 3 (Millipore 06-570), Insulin (Dako A0564), Glucagon (Millipore 4031-01F) and Vimentin (Millipore ab5733). For western blotting anti-bodies included ADK (Abcam ab38010, ab64825) and RAN (BD Bioscience 610340) as a loading control.
Once compound-treated islet cells were stained, β-cell replication was assessed via automated image acquisition and analysis using a Cellomics ArrayScanVTI. The acquisition thresholds/parameters were established such that the computer-based calls of replication events were consistent with human-based calls. The parameters used were directed at the identification of (1) PDX-1+ cells and (2) ki-67 positive staining within the PDX-1 positive area. The algorithm was a three step process. First the nuclear area was predicted by the software based upon the expected PDX-1 staining pattern. Second PDX-1 positive cells (selected objects) were counted based upon the average staining intensity within the predicted nuclear area (Note: total signal intensity was essentially equal in quality but was not typically used). Third, the number of PDX-1 positive cells (selected objects) that simultaneously were Ki-67 positive was determined by determining the average fluorescence intensity of ki-67 staining within the predicted nuclear area (again, total intensity was also occasionally used with equal efficacy). The specific thresholds (fluorescence intensities) varied from experiment to experiment. In general, the basal replication rate was set at roughly 1% i.e., the algorithm was varied until 1% of DMSO treated PDX+ cells were reported to be double positive for PDX-1 and ki67. […]

[2] = test system: β-cells; experiment: quantification of β-cell number (PDX-1+ cell count); type: cell-based, rat; settings: day 6 (144 h), 5-IT 2 μM, 15 mM glucose; control wells 20%
Description: To quantify the number of β-cells at 0 h, 96 h and 144 h of culture, cells were plated in 96-well plates as above in the presence of vehicle only or 5-IT and 15 mM glucose; final DMSO dilution was 1:1000 in all wells. Time Oh was after cells had been allowed 48 h to adhere. Each condition was represented by 16 separate wells per plate to accommodate small fluctuations in plating density. Media changes were performed every 48 h. Cells were fixed at the appropriate time point and stored to be stained simultaneously for PDX-1. Automated cell counting was performed using the Cellomics ArrayScanVTI which identified PDX-1^+ cells.

[3] = test system: murine hepatocytes
Description: Total cell number was assessed with DAPI and replicating cells were ki-67^+. The Cellomics ArrayScanVTI was used for image acquisition and analysis.

Structure (SMILES): Nc1ncnc2c1c(I)cn2[C@@H]1O[C@H](CO)[C@@H](O)[C@H]1O [A10, 5-iodotubercidin]
- induction of β-cell replication in the screening assay ([1]; 1 uM, 24 hours): 2.3 fold
- induction of the replication rate above the base-line rate, combination with high glucose ([1]; 5-IT 2 μM plus high glucose): 5 fold
- β-cell replication effect of addition of 5-IT to the GLP-1R agonists ([1]; 24 h, 5-IT 2 μM plus GLP-1 or Ex-4): ~4 fold
- increase of β-cell replication ([1]; 24 h, 5-IT 2 μM, GLP-1 and Ex-4 20 nM and 4 nM, normalized to DMSO): ~2.5 fold
- effect of glucose concentration on % beta-cell replication in treated samples ([1]; A10 2 μM, 0-25 mM glucose): little effect
- % Ki-67 positive cells versus serum concentration ([1]; A10 2 μM, 0.2%, 2.0% or 20% serum): increased with increasing serum concentration
- % of Ki-67 positive β-cells (PDX-1 and Ki-67 positive cells), dose curve ([1]; A10 0.019-10 uM, B8 0.23-30 uM): increase in a dose dependent manner
- pEC50 ([1]; FIG. 13c dose-response curves, read-out: EC50, β-cell proliferation in rat islet cultures): 5.33
- pEC50 ([1]; dose curves FIG. 2a (A10) and FIG. 3 (B8), Ki-67 positive β-cells, read-out: EC50 for β-cell proliferation): 6.33
- increase in number of β-cells compared to time 0 [2]: 40%
- tolerability by cultured hepatocytes [3]: not well tolerated
